Target: recombinant IL4I1 (Homo sapiens (Human), UniProt Q96RQ9)
Assay: IL4I1 Enzymatic Assay (Amplex Red/HRP coupled fluorescence detection of H2O2)
Format: biochemical
Conditions: 240 min; recombinant IL4I1, four-hour pre-incubation with compound
How it was run: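 Recombinant human IL4I1 (1 nM final) pre-incubated 4 h with compound at ambient temperature in 50 mM Hepes pH 7.0, 0.005% Tween20. Started with 1 mM each Phe/Tyr/Trp plus Amplex Red/HRP; H2O2-derived resorufin fluorescence read after 120 min; EC50 from ten-point 1:3 titration, four-parameter fit.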

Chain of recombinant IL4I1 (Q96RQ9 22-567): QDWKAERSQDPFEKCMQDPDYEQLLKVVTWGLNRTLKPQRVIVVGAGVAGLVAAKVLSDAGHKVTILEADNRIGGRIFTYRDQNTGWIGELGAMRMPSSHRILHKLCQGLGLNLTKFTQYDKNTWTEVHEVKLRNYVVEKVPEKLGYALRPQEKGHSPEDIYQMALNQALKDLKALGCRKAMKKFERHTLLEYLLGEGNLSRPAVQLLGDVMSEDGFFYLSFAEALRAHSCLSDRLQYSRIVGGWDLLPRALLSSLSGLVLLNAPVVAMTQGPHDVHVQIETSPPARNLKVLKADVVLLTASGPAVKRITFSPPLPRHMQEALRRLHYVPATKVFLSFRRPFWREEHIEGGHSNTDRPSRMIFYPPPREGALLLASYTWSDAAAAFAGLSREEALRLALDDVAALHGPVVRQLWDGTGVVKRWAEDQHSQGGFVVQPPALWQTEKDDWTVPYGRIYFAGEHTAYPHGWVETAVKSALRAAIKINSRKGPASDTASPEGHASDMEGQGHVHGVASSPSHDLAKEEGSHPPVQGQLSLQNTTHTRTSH

Row | EC50 [nM] | Compound
1 | 47 | O=c1c(=O)n(C23CC(F)(C2)C3)ccn1Cc1ccc(-n2nccn2)nc1 [Example 255, 1-((6-(2H-1,2,3-triazol-2-yl)pyridin-3-yl)methyl)-4-(3-fluorobicyclo[1.1.1]pentan-1-yl)-1,4-dihydropyrazine-2,3-dione]
2 | 533 | O=C1C(=O)N(C23CC(F)(C2)C3)CCN1Cc1cc(-c2cccnc2)on1 [Example 256, 1-(3-fluorobicyclo[1.1.1]pentan-1-yl)-4-((5-(pyridin-3-yl)isoxazol-3-yl)methyl)piperazine-2,3-dione]
3 | 68 | O=c1c(=O)n(C2(CF)CC2)ccn1Cc1cn(-c2ccccn2)nn1 [Example 257, 1-(1-(fluoromethyl)cyclopropyl)-4-((1-(pyridin-2-yl)-1H-1,2,3-triazol-4-yl)methyl)-1,4-dihydropyrazine-2,3-dione]
4 | 78 | N#CC1(n2ccn(Cc3cn(-c4ccccn4)nn3)c(=O)c2=O)CC1 [Example 258, 1-(2,3-dioxo-4-((1-(pyridin-2-yl)-1H-1,2,3-triazol-4-yl)methyl)-3,4-dihydropyrazin-1(2H)-yl)cyclopropane-1-carbonitrile]
5 | 78 | O=C1C(=O)N(C23CC(F)(C2)C3)CCN1Cc1cn(-c2ccccn2)nn1 [Example 259, 1-(3-fluorobicyclo[1.1.1]pentan-1-yl)-4-((1-(pyridin-2-yl)-1H-1,2,3-triazol-4-yl)methyl)piperazine-2,3-dione]
6 | 38 | O=c1c(=O)n(C23CC(F)(C2)C3)ccn1Cc1cn(-c2ccccn2)nn1 [Example 260, 1-(3-fluorobicyclo[1.1.1]pentan-1-yl)-4-((1-(pyridin-2-yl)-1H-1,2,3-triazol-4-yl)methyl)-1,4-dihydropyrazine-2,3-dione]
7 | 178 | O=c1c(=O)n(C2(CF)CC2)ccn1Cc1ccc(-n2ccnn2)cn1 [Example 261, 1-((5-(1H-1,2,3-triazol-1-yl)pyridin-2-yl)methyl)-4-(1-(fluoromethyl)cyclopropyl)-1,4-dihydropyrazine-2,3-dione]
8 | 868 | O=c1c(=O)n(C23CC(F)(C2)C3)ccn1Cc1ccc(-n2ccnn2)cn1 [Example 262, 1-((5-(1H-1,2,3-triazol-1-yl)pyridin-2-yl)methyl)-4-(3-fluorobicyclo[1.1.1]pentan-1-yl)-1,4-dihydropyrazine-2,3-dione]
9 | 995 | O=C1C(=O)N(C23CC(F)(C2)C3)CCN1Cc1ccc(-n2ccnn2)cn1 [Example 263, 1-((5-(1H-1,2,3-triazol-1-yl)pyridin-2-yl)methyl)-4-(3-fluorobicyclo[1.1.1]pentan-1-yl)piperazine-2,3-dione]
10 | 73 | O=c1c(=O)n(C2(CF)CC2)ccn1Cc1ccc(-n2nccn2)nc1 [Example 264, 1-((6-(2H-1,2,3-triazol-2-yl)pyridin-3-yl)methyl)-4-(1-(fluoromethyl)cyclopropyl)-1,4-dihydropyrazine-2,3-dione]
11 | 114 | O=C1C(=O)N(C23CC(F)(C2)C3)CCN1Cc1ccc(-n2nccn2)nc1 [Example 265, 1-((6-(2H-1,2,3-triazol-2-yl)pyridin-3-yl)methyl)-4-(3-fluorobicyclo[1.1.1]pentan-1-yl)piperazine-2,3-dione]
12 | 4 | O=C1C(=O)N([C@H]2C[C@@H](c3ccccc3)C2)CCN1Cc1ccc(-c2ccccc2)nc1 [Example 266A, cis-1-(3-phenylcyclobutyl)-4-((6-phenylpyridin-3-yl)methyl)piperazine-2,3-dione]
13 | 4 | O=C1C(=O)N([C@H]2C[C@H](c3ccccc3)C2)CCN1Cc1ccc(-c2ccccc2)nc1 [Example 266B, trans-1-(3-phenylcyclobutyl)-4-((6-phenylpyridin-3-yl)methyl)piperazine-2,3-dione]
14 | 57 | O=C1C(=O)N(C2CCCC2)CCN1Cc1ccc(-c2ccccc2)[n+]([O-])c1 [Example 267, 5-((4-cyclopentyl-2,3-dioxopiperazin-1-yl)methyl)-2-phenylpyridine 1-oxide]
15 | 15 | O=C1C(=O)N(C2CCCC2)CCN1CCc1cc2ccc(Cl)cc2nn1 [Example 268, 1-(2-(7-chlorocinnolin-3-yl)ethyl)-4-cyclopentylpiperazine-2,3-dione]
16 | 49 | O=C1C(=O)N(C2CCCC2)CCN1CCc1cc2ccccc2nn1 [Example 269, 1-(2-(cinnolin-3-yl)ethyl)-4-cyclopentylpiperazine-2,3-dione]
17 | 24 | O=C1C(=O)N(C2CCCC2)CCN1Cc1cnc(-c2ccccc2)nc1 [Example 270, 1-cyclopentyl-4-((2-phenylpyrimidin-5-yl)methyl)piperazine-2,3-dione]
18 | 14 | O=C1C(=O)N(C2CCCC2)CCN1Cc1cnc(-c2ccccc2)cn1 [Example 271, 1-cyclopentyl-4-((5-phenylpyrazin-2-yl)methyl)piperazine-2,3-dione]
19 | 35 | O=C1C(=O)N(C2CCCC2)CCN1Cc1ccc2cc[nH]c(=O)c2c1 [Example 272, 1-cyclopentyl-4-((1-oxo-1,2-dihydroisoquinolin-7-yl)methyl)piperazine-2,3-dione]
20 | 19 | O=C1C(=O)N(C2CCCC2)CCN1Cc1cnn(-c2ccccc2)c1 [Example 273, 1-cyclopentyl-4-((1-phenyl-1H-pyrazol-4-yl)methyl)piperazine-2,3-dione]

The remaining lines, values behind:

Row | Compound | EC50 [nM]
21 | O=c1c(=O)n(C2(CF)CC2)ccn1Cc1cc(-c2ccccn2)on1 [Example 238, 1-(1-(fluoromethyl)cyclopropyl)-4-((5-(pyridin-2-yl)isoxazol-3-yl)methyl)-1,4-dihydropyrazine-2,3-dione] | 29
22 | O=c1c(=O)n(C2(CF)CC2)ccn1Cc1ccc(-c2ccccn2)nn1 [Example 239, 1-(1-(fluoromethyl)cyclopropyl)-4-((6-(pyridin-2-yl)pyridazin-3-yl)methyl)-1,4-dihydropyrazine-2,3-dione] | 82
23 | O=C1C(=O)N(C23CC(F)(C2)C3)CCN1Cc1cc(-c2cccnc2)no1 [Example 240, 1-(3-fluorobicyclo[1.1.1]pentan-1-yl)-4-((3-(pyridin-3-yl)isoxazol-5-yl)methyl)piperazine-2,3-dione] | 995
24 | O=C1C(=O)N(C23CC(F)(C2)C3)CCN1Cc1ccc(-c2cccnc2)nn1 [Example 241, 1-(3-fluorobicyclo[1.1.1]pentan-1-yl)-4-((6-(pyridin-3-yl)pyridazin-3-yl)methyl)piperazine-2,3-dione] | 40
25 | O=c1c(=O)n(C2(CF)CC2)ccn1Cc1ccc(-c2ccccc2F)nn1 [Example 242, 1-(1-(fluoromethyl)cyclopropyl)-4-((6-(2-fluorophenyl)pyridazin-3-yl)methyl)-1,4-dihydropyrazine-2,3-dione] | 32
26 | O=C1C(=O)N(C23CC(F)(C2)C3)CCN1Cc1ccc(-c2cncs2)nn1 [Example 243, 1-(3-fluorobicyclo[1.1.1]pentan-1-yl)-4-((6-(thiazol-5-yl)pyridazin-3-yl)methyl)piperazine-2,3-dione] | 30
27 | O=C1C(=O)N(C23CC(F)(C2)C3)CCN1Cc1ccc(-n2nccn2)cn1 [Example 244, 1-((5-(2H-1,2,3-triazol-2-yl)pyridin-2-yl)methyl)-4-(3-fluorobicyclo[1.1.1]pentan-1-yl)piperazine-2,3-dione] | 45
28 | O=c1c(=O)n(C2(CF)CC2)ccn1Cc1ccc(-c2cncs2)nn1 [Example 245, 1-(1-(fluoromethyl)cyclopropyl)-4-((6-(thiazol-5-yl)pyridazin-3-yl)methyl)-1,4-dihydropyrazine-2,3-dione] | 43
29 | O=c1c(=O)n(C2(CF)CC2)ccn1Cc1cc(-c2cccnc2)no1 [Example 246, 1-(1-(fluoromethyl)cyclopropyl)-4-((3-(pyridin-3-yl)isoxazol-5-yl)methyl)-1,4-dihydropyrazine-2,3-dione] | 37
30 | O=c1c(=O)n(C2(CF)CC2)ccn1Cc1ccc(-n2ccnn2)nn1 [Example 247, 1-((6-(1H-1,2,3-triazol-1-yl)pyridazin-3-yl)methyl)-4-(1-(fluoromethyl)cyclopropyl)-1,4-dihydropyrazine-2,3-dione] | 44
31 | O=c1c(=O)n(C23CC(F)(C2)C3)ccn1Cc1ccc(-n2ccnn2)nn1 [Example 248, 1-((6-(1H-1,2,3-triazol-1-yl)pyridazin-3-yl)methyl)-4-(3-fluorobicyclo[1.1.1]pentan-1-yl)-1,4-dihydropyrazine-2,3-dione] | 38
32 | O=C1C(=O)N(C23CC(F)(C2)C3)CCN1Cc1ccc(-n2ccnn2)nn1 [Example 249, 1-((6-(1H-1,2,3-triazol-1-yl)pyridazin-3-yl)methyl)-4-(3-fluorobicyclo[1.1.1]pentan-1-yl)piperazine-2,3-dione] | 148
33 | O=C1C(=O)N(C23CC(F)(C2)C3)CCN1Cc1ccc(-n2cccn2)cn1 [Example 250, 1-((5-(1H-pyrazol-1-yl)pyridin-2-yl)methyl)-4-(3-fluorobicyclo[1.1.1]pentan-1-yl)piperazine-2,3-dione] | 240
34 | O=c1c(=O)n(C2(CF)CC2)ccn1Cc1ccc(-c2ccccn2)cn1 [Example 251, 1-([2,3′-bipyridin]-6′-ylmethyl)-4-(1-(fluoromethyl)cyclopropyl)-1,4-dihydropyrazine-2,3-dione] | 100
35 | O=C1C(=O)N(C23CC(F)(C2)C3)CCN1Cc1cc(-c2ccccn2)on1 [Example 252, 1-(3-fluorobicyclo[1.1.1]pentan-1-yl)-4-((5-(pyridin-2-yl)isoxazol-3-yl)methyl)piperazine-2,3-dione] | 38
36 | O=c1c(=O)n(C2(CF)CC2)ccn1Cc1cc(-c2cccnc2)on1 [Example 253, 1-(1-(fluoromethyl)cyclopropyl)-4-((5-(pyridin-3-yl)isoxazol-3-yl)methyl)-1,4-dihydropyrazine-2,3-dione] | 45
37 | O=C1C(=O)N(C23CC(F)(C2)C3)CCN1Cc1ccc(-c2ccccn2)cn1 [Example 254, 1-([2,3′-bipyridin]-6′-ylmethyl)-4-(3-fluorobicyclo[1.1.1]pentan-1-yl)piperazine-2,3-dione] | 93
